Patent publication US20030134899A1, “Pharmaceutical combination of bicalutamide and tamoxifen for providing an anti-androgenic effect and an anti-oestrogenic effect” (priority 2002, published 2003)

How the values were obtained:
free testosterone = assay: Human clinical trial: free testosterone concentrations in healthy male volunteers; type: in vivo
Description: Key Inclusion Criteria: Male, aged 65 years or above showing no clinically significant abnormalities in routine haematological and biochemical tests and having endocrinology and prostate specific antigen (PSA) results within normal limits. Key Exclusion Criteria: Previous inclusion in a clinical trial using CASODEXTM; concurrent treatment with any drugs with the exception of paracetomol; history or presence of any testicular abnormality; history or presence of gastrointestinal, hepatic or renal disease, or other condition known to interfere with the absorption, distribution, metabolism or excretion of drugs; a clinically significant illness within 2 weeks of trial commencement; definite or suspected personal or family history of significant adverse drug reactions or any hypersensitivity to CASODEXTM or […]; treatment within the previous 3 months with any drugs known to have a well-defined potential for hepatotoxicity or hepatic interaction. Dosage: The CASODEXTM was administered daily at a dose of 150 mg and the […] was administered daily at a dose of 20 mg. All treatments were in tablet form and taken once daily. Daily treatment with CASODEXTM plus […] was for 6 weeks, this period being selected as the minimum time to attain steady-state plasma concentrations for the drugs. Another set of volunteers were administered CASODEXTM alone at a daily dose of 150 mg for 4 weeks. All treatments were in tablet form and taken once daily. Key Assessment: Free testosterone concentrations were measured during the course of the trial.

testosterone = conditions: cited from earlier work
testosterone, LH = conditions: cited from earlier work

| SMILES | Free testosterone, ratio to Day 1 (free testosterone; Day 29, CASODEX alone 150 mg daily for 4 weeks) | Free testosterone concentration, gmean (free testosterone; Day 29, CASODEX alone 150 mg daily for 4 weeks, n=7, pre-dose Day 1 baseline gmean 0.048) [nmol/L] | Increase in mean free testosterone concentration (free testosterone; by the end of the treatment period (4 weeks), CASODEX alone 150 mg daily) [%] | Increase in mean free testosterone concentration (testosterone; after 24 weeks of daily 150 mg CASODEX alone, prostate cancer (Verhelst et al 1994)) [%] | Change of basal level of total testosterone (testosterone; single agent therapy in humans (Blackledge et al 1996)) | Effect on mean serum testosterone, oestradiol, LH levels, LH pulse frequency and amplitude (testosterone, LH; 13 normal men, tamoxifen for 6 weeks (Spijkstra et al 1988)) | Effect on serum testosterone levels (testosterone, LH; tamoxifen administration to men (Lewis-Jones et al 1987)) | Effect on testosterone and LH (testosterone, LH; tamoxifen intake in adult men (Comhaire et al 1995)) | Effect on basal LH, FSH and testosterone levels (testosterone, LH; three months' treatment, normogonadotrophic oligozoospermic men (van Bergeijk et al 1986)) |
| --- | --- | --- | --- | --- | --- | --- | --- | --- | --- |
| CC(O)(CS(=O)(=O)c1ccc(F)cc1)C(=O)Nc1ccc(C#N)c(C(F)(F)F)c1 (stereo not drawn) [CASODEX™, 4′-cyano-α′,α′,α′-trifluoro-3-(4-fluorophenylsulphonyl)-2-hydroxy-2-methylpropiono-m-toluidide] | 1.58 | 0.076 | 58 | 57 | approximate doubling | – | – | – | – |
| CC/C(=C(\c1ccccc1)c1ccc(OCCN(C)C)cc1)c1ccccc1 [tamoxifen, (Z)-2-[p-(1,2-diphenylbut-1-enyl)phenoxy]ethyldimethylamine] | – | – | – | – | – | An increase | marked elevation | increase testosterone and LH | stimulated basal LH, FSH and testosterone levels |
